17 compounds from PMC3726784, “Synthesis, Structure and Antibacterial Activity of Potent DNA Gyrase Inhibitors: N′-Benzoyl-3-(4-Bromophenyl)-1H-Pyrazole-5-Carbohydrazide Derivatives” (PLoS ONE, 2013) can be followed below.

Values after ≈ are worked out from the molar mass of the structure shown.

Series [1] has as its system Bacillus subtilis ATCC 6633. The series is described as follows: In vitro antibacterial assay (MIC, MTT colorimetric method). The format is cell-based. Particulars: B. subtilis ATCC 6633, MH medium, 37°C; for MIC: Bacillus subtilis, ATCC6633, 24 h, read-out: Minimum inhibitory concentrations, B. subtilis. On the procedure: (§1) The activities of synthesized compounds were tested against Bacillus subtilis ATCC 6633, Escherichia coli ATCC 35218, Pseudomonas aeruginosa ATCC 27853 and Staphylococcus aureus ATCC 6538 which may be causal agents of some serious infections in humans using MH medium (Mueller-Hinton medium: casein hydrolysate 17.5 g, soluble starch 1.5 g, beef extract 1000 mL). Also included are the activities of reference compounds kanamycin.
(§2) The antibacterial activity of the synthesized compounds was tested against B. subtilis, E. coli, P. aeruginosa and S. aureus using MH medium (Mueller-Hinton medium: casein hydrolysate 17.5 g, soluble starch 1.5 g, beef extract 1000 mL). The MICs (minimum inhibitory concentrations) of the test compounds were determined by a colorimetric method using the dye MTT (3-(4,5-dimethylth-iazol-2-yl)-2,5-diphenyl tetrazoliumbromide). A stock solution of the synthesized compound (100 µg/mL) in DMSO was prepared and graded quantities of the test compounds were incorporated in specified quantity of sterilized liquid MH medium. A specified quantity of the medium containing the compound was poured into microtitration plates. Suspension of the microorganism was prepared to contain approximately 10^5 cfu/mL and applied to microtitration plates with serially diluted compounds in DMSO to be tested and incubated at 37°C for 24 h. After the MICs were visually determined on each of the microtitration plates, 50 µL of PBS (phosphate buffered saline 0.01 mol/L, pH 7.4, Na2HPO4·12H2O 2.9 g, KH2PO4 0.2 g, NaCl 8.0 g, KCl 0.2 g, distilled water 1000 mL) containing 2 mg of MTT/mL was added to each well. Incubation was continued at room temperature for 4–5 h. The content of each well was removed, and 100 µL of isopropanol containing 5% 1 mol/L HCl was added to extract the dye. After 12 h of incubation at room temperature, the optical density (OD) was measured with a microplate reader at 550 nm.
(In general: Tetrazolium dyes change colour on reduction, which living cells bring about.)

In series [2] the test system is Pseudomonas aeruginosa ATCC 27853. Described as above. The format is cell-based. Particulars: P. aeruginosa ATCC 27853, MH medium, 37°C, 24 h; for MIC: Pseudomonas aeruginosa, ATCC27853, read-out: Minimum inhibitory concentrations, P.aeruginosa. On the procedure: as §1, §2
The subject of series [3] is Staphylococcus aureus ATCC 6538. Described as above. The format is cell-based. Particulars: S. aureus ATCC 6538, MH medium, 37°C, 24 h; for MIC: Staphylococcus aureus, ATCC6538, read-out: Minimum inhibitory concentrations, S. aureus. As for the experimental part: as §1, §2
Series [4] deals with Escherichia coli ATCC 35218. Described as above. Particulars: E. coli ATCC 35218, MH medium, 37°C, 24 h; for MIC: Escherichia coli, ATCC35218, read-out: Minimum inhibitory concentrations, E. coli. The format is cell-based. On the procedure:
as §1, §2

In a further series the target is B. subtilis DNA gyrase (Bacillus subtilis, UniProt P05652). The series is described as follows: biochemical. On the procedure:
(§3) To elucidate the mechanism by which the pyrazole derivatives induce antibacterial activity, the inhibitory activities of selected compounds were examined against DNA gyrase isolated from B. subtilis and S. aureus.
The B. subtilis DNA gyrase were purified by the methods of E. Orr.: Cells were suspended in an equal volume of 25 mM HEPES-KOH (pH 8.0)-100 mM KCl and stored frozen at −70°C. The frozen cell suspension was thawed and diluted with an equal volume of 25 mM HEPES-KOH (pH 8.0)-0.4 M sucrose-20 mM magnesium acetate-1 mM dithiothreitol-5 mM PMSF. All operations were performed at 0–4°C. Lysozyme was added to a final concentration, and the mixture was incubated for 2.5 h. One-third volume of 2 M KCl-1.5% Brij was added, and the incubation was continued for 15 min. The lysate was then centrifuged for 90 min intirotor. The supernatant was adjusted to a KCl concentration of 0.2 M by dilution with 25 mM HEPES-KOH (pH 8.0)-1 mM dithiothreitol-1mMEDTA-0.5 mM pmsf-10% ethylene glycol and applied to a column. The column was washed with starting buffer and eluted successively with buffer containing 20 mM ATP-25 mM magnesium acetate-0.2 M KCI, buffer (2 M KCI), and 5 M urea in buffer (0.2 M KCl).Protein-containing fractions were dialyzed against buffer (0.05 MKCI). Supercoiling and decatenation were carried out by the F. Blanche method.

A further series addresses T1, S. aureus DNA gyrase (Staphylococcus aureus, UniProt P0A0K8).
T1 construct: purified by the F. Blanche [25] from a crude extract of S. aureus; endogenous in cells
In words: biochemical. Particulars: enzyme purified from S. aureus, supercoiling.
Description: as §3
The S. aureus DNA gyrase were purified by the F. Blanche from a crude extract of S. aureus and cultivated with medium B, which was composed of 10 g of polypeptone, 2 g of yeast extract, 8 g of Na2HPO4, 2 g of KH2PO4, 1.2 g of (NH4)2SO4, 0.2 g of MgSO4, 4 g of glucose perliter of distilled water. Supercoiling and decatenation were performed according to F. B lanche.

T1 sequence (P0A0K8 whole entry): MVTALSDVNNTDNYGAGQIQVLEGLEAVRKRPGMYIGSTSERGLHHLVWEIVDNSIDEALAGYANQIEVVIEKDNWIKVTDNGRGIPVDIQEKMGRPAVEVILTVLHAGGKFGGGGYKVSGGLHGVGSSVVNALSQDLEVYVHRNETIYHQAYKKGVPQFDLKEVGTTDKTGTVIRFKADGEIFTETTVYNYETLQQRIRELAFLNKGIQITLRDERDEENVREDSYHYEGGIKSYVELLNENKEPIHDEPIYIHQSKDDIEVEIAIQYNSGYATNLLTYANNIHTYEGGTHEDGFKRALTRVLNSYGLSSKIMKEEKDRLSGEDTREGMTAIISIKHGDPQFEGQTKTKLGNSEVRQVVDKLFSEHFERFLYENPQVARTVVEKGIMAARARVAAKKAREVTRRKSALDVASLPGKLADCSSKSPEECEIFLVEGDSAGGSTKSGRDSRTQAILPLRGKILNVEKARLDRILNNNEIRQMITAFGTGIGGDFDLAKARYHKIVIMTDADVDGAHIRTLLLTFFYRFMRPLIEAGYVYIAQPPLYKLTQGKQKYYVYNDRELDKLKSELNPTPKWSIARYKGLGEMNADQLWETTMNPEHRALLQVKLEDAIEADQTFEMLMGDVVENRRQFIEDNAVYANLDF
T1 sequence (P20831 whole entry partner): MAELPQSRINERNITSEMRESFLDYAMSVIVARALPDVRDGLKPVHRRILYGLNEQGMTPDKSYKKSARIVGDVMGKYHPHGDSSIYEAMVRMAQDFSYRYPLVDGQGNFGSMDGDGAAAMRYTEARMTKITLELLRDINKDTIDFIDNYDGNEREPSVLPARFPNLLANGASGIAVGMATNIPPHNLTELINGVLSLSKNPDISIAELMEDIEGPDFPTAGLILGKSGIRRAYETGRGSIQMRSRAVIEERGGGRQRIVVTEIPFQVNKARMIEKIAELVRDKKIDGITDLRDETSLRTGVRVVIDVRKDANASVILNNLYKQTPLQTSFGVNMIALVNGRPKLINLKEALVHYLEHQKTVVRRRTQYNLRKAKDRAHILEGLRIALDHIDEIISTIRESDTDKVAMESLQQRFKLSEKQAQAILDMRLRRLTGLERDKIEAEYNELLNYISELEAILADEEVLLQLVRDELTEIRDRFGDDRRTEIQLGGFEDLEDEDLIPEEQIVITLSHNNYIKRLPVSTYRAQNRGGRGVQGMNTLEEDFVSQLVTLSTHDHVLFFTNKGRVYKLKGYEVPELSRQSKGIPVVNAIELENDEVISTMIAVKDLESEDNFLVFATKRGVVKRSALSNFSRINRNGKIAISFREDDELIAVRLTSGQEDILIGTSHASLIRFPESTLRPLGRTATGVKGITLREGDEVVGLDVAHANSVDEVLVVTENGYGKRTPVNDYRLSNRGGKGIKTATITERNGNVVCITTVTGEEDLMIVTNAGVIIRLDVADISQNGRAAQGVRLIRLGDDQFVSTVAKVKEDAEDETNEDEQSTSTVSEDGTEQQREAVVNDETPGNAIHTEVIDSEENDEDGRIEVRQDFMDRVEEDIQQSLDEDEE
Chain of B. subtilis DNA gyrase (P05652 whole entry): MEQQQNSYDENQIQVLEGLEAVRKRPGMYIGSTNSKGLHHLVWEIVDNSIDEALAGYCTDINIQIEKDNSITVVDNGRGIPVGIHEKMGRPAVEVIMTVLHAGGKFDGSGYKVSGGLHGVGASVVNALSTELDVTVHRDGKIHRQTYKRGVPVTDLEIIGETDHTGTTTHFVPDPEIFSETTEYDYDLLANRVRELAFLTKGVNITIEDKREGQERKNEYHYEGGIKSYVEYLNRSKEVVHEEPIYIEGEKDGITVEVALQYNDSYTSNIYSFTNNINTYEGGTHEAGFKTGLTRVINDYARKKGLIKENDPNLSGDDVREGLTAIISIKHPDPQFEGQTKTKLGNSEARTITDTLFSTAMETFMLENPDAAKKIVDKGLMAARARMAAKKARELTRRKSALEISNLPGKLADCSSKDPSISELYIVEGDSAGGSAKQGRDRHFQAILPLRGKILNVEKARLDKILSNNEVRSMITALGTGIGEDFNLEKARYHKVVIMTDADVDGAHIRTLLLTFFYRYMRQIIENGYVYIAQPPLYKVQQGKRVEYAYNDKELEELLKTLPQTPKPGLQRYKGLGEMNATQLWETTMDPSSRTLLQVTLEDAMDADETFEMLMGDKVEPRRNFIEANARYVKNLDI
Chain of B. subtilis DNA gyrase (P05653 whole entry, further chain): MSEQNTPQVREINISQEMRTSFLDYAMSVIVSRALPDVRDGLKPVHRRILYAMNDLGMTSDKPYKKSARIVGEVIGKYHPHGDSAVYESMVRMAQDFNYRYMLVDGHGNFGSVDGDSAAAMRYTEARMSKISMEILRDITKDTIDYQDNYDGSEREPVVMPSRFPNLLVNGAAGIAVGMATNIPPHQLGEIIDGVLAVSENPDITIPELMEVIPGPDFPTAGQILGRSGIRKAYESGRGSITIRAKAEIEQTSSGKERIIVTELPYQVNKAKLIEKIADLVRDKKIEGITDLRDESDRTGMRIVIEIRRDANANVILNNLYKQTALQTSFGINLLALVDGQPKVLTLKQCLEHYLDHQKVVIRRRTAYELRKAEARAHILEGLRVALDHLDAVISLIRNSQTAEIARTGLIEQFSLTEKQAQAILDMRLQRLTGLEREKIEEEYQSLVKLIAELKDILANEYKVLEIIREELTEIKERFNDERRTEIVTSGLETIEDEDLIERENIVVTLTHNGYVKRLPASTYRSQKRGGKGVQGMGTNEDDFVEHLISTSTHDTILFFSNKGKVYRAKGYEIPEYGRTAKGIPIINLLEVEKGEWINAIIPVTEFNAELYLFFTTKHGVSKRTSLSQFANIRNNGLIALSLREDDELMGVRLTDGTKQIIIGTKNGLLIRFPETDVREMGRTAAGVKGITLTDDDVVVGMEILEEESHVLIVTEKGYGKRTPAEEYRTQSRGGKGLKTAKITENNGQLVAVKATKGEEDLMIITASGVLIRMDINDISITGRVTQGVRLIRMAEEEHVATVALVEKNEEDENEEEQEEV

What is called melting point is the temperature of the solid-liquid transition. In turn, `O=C(NNC(=O)c1cc(-c2ccc(Br)cc2)n[nH]1)c1cccc([N+](=O)[O-])c1` [3l, 3-(4-Bromophenyl)-N'-(3-nitrobenzoyl)-1H-pyrazole-5-carbohydrazide] returned a melting point of 275 to 276 °C. For the same compound, the MIC in series [1] was 10.8 µg/mL (≈ 25.1 µM). The MIC in series [2] was 50 µg/mL (≈ 116 µM). Further, the MIC in series [3] is 10.8 µg/mL (≈ 25.1 µM). The MIC in series [4] is above 50 µg/mL.
Take Penicillin [reference compound]: the “Minimum inhibitory concentrations, B. subtilis” value in series [1] (24 h) amounted to 1.56 µg/mL. Further, the “Minimum inhibitory concentrations, P.aeruginosa” value in series [2] is listed as 6.25 µg/mL. The “Minimum inhibitory concentrations, S. aureus” value in series [3] was determined as 1.56 µg/mL. In addition, the “Minimum inhibitory concentrations, E. coli” value in series [4] is given as 6.25 µg/mL.
In the case of `O=C(NNC(=O)c1ccccc1[N+](=O)[O-])c1cc(-c2ccc(Br)cc2)n[nH]1` [3r, 3-(4-Bromophenyl)-N'-(2-nitrobenzoyl)-1H-pyrazole-5-carbohydrazide], the melting point is 266 to 267 °C. For the same compound, in series [1], the MIC worked out at 50 µg/mL (≈ 116 µM). Besides, the MIC in series [2] was above 50 µg/mL. The MIC in series [3] was 25 µg/mL (≈ 58.1 µM). For the same compound, in series [4], the MIC is above 50 µg/mL.
As usually defined, the IC50 is the concentration that gives 50% inhibition. High values mean a need for much substance, low ones inhibition by little substance. In turn, `COc1cccc(C(=O)NNC(=O)c2cc(-c3ccc(Br)cc3)n[nH]2)c1` [3k, 3-(4-Bromophenyl)-N'-(3-methoxybenzoyl)-1H-pyrazole-5-carbohydrazide] returned a melting point of 251 to 253 °C. Besides, the MIC in series [2] was found to be 12.5 µg/mL (≈ 30.1 µM). Also, the MIC in series [3] is 0.78 µg/mL (≈ 1.88 µM). In addition, the MIC in series [4] was found to be 50 µg/mL (≈ 120 µM). This compound showed an IC50 against B. subtilis DNA gyrase of 602 nM. The compound further showed an IC50 against S. aureus DNA gyrase of 361 nM.
`Cc1ccc(C(=O)NNC(=O)c2cc(-c3ccc(Br)cc3)n[nH]2)cc1` [3d, 3-(4-Bromophenyl)-N'-(4-methylbenzoyl)-1H-pyrazole-5-carbohydrazide] had a melting point of 270 to 272 °C. In addition, the MIC in series [2] was 12.5 µg/mL (≈ 31.3 µM). The MIC in series [3] was 3.66 µg/mL (≈ 9.17 µM). Further, the MIC in series [4] worked out at 50 µg/mL (≈ 125 µM). For the same compound, the midpoint of inhibition at B. subtilis DNA gyrase, the IC50, lay at 6510 nM. This compound also had an IC50 against S. aureus DNA gyrase of 3760 nM.
For `O=C(NNC(=O)c1cc(-c2ccc(Br)cc2)n[nH]1)c1cccc(F)c1` [3g, 3-(4-Bromophenyl)-N'-(3-fluorobenzoyl)-1H-pyrazole-5-carbohydrazide], the melting point fell in the range of 278 to 280 °C. Besides, the MIC in series [1] was 25 µg/mL (≈ 62 µM). Further, the MIC in series [2] was 50 µg/mL (≈ 124 µM). Moreover, the MIC in series [3] was determined as 13 µg/mL (≈ 32.2 µM). In series [4], the MIC is above 50 µg/mL.
For `O=C(NNC(=O)c1cc(-c2ccc(Br)cc2)n[nH]1)c1ccc(Br)cc1` [3c, N'-(4-Bromobenzoyl)-3-(4-bromophenyl)-1H-pyrazole-5-carbohydrazide] the same measures were 297 to 298 °C, 10.2 µg/mL (≈ 22 µM), 50 µg/mL (≈ 108 µM), 13.8 µg/mL (≈ 29.7 µM) and above 50 µg/mL.
For `COc1ccccc1C(=O)NNC(=O)c1cc(-c2ccc(Br)cc2)n[nH]1` [3q, 3-(4-Bromophenyl)-N'-(2-methoxybenzoyl)-1H-pyrazole-5-carbohydrazide] the same measures were 287 to 290 °C, 20.6 µg/mL (≈ 49.6 µM), above 50 µg/mL, 18.7 µg/mL (≈ 45.1 µM) and above 50 µg/mL.
For `O=C(NNC(=O)c1cc(-c2ccc(Br)cc2)n[nH]1)c1ccc([N+](=O)[O-])cc1` [3f, 3-(4-Bromophenyl)-N'-(4-nitrobenzoyl)-1H-pyrazole-5-carbohydrazide] the same measures were 255 to 257 °C, 25 µg/mL (≈ 58.1 µM), above 50 µg/mL, 18 µg/mL (≈ 41.9 µM) and above 50 µg/mL.
As for `O=C(NNC(=O)c1cc(-c2cccc(Br)c2)n[nH]1)c1ccc(Br)cc1` [3i, N'-(4-Bromobenzoyl)-3-(3-bromophenyl)-1H-pyrazole-5-carbohydrazide], the melting point lay within 229 to 231 °C. The MIC in series [1] came out at 12.6 µg/mL (≈ 27.1 µM). In series [2], the MIC stood at 50 µg/mL (≈ 108 µM). The MIC in series [3] is 12.1 µg/mL (≈ 26.1 µM). In addition, the MIC in series [4] is above 50 µg/mL.
The compound `O=C(NNC(=O)c1cc(-c2ccc(Br)cc2)n[nH]1)c1ccc(Cl)cc1` [3b, 3-(4-Bromophenyl)-N'-(4-chlorobenzoyl)-1H-pyrazole-5-carbohydrazide] registered a melting point of 280 to 283 °C. Besides, the MIC in series [1] is 17.1 µg/mL (≈ 40.8 µM). The MIC in series [2] was 50 µg/mL (≈ 119 µM). In addition, the MIC in series [3] is 15 µg/mL (≈ 35.7 µM). In series [4], the MIC was above 50 µg/mL.
For `O=C(NNC(=O)c1cc(-c2ccc(Br)cc2)n[nH]1)c1ccc(F)cc1` [3a, 3-(4-Bromophenyl)-N'-(4-fluorobenzoyl)-1H-pyrazole-5-carbohydrazide] the same measures were 284 to 287 °C, 12.5 µg/mL (≈ 31.1 µM), 50 µg/mL (≈ 124 µM), 15 µg/mL (≈ 37.2 µM) and above 50 µg/mL.
The matching figures for `O=C(NNC(=O)c1cc(-c2ccc(Br)cc2)n[nH]1)c1cccc(Cl)c1` [3h, 3-(4-Bromophenyl)-N'-(3-chlorobenzoyl)-1H-pyrazole-5-carbohydrazide]: 246 to 248 °C, 6.25 µg/mL (≈ 14.9 µM), 50 µg/mL (≈ 119 µM), 12.6 µg/mL (≈ 29.9 µM) and above 50 µg/mL.
For the compound `O=C(NNC(=O)c1ccccc1F)c1cc(-c2ccc(Br)cc2)n[nH]1` [3m, 3-(4-Bromophenyl)-N'-(2-fluorobenzoyl)-1H-pyrazole-5-carbohydrazide], the melting point was 297 to 298 °C. Besides, the MIC in series [1] is 25 µg/mL (≈ 62 µM). Besides, the MIC in series [2] is above 50 µg/mL. In addition, in series [3], the MIC came to 22.1 µg/mL (≈ 54.8 µM). Besides, the MIC in series [4] is above 50 µg/mL.
The compound `O=C(NNC(=O)c1cc(-c2ccccc2Br)n[nH]1)c1ccc(Br)cc1` [3o, N'-(4-Bromobenzoyl)-3-(2-bromophenyl)-1H-pyrazole-5-carbohydrazide] registered a melting point of 281 to 283 °C. For the same compound, the MIC in series [1] came out at 23.1 µg/mL (≈ 49.8 µM). In addition, the MIC in series [2] was above 50 µg/mL. In addition, the MIC in series [3] is 21 µg/mL (≈ 45.2 µM). In addition, the MIC in series [4] is above 50 µg/mL.
Consider `O=C(NNC(=O)c1ccccc1Cl)c1cc(-c2ccc(Br)cc2)n[nH]1` [3n, 3-(4-Bromophenyl)-N'-(2-chlorobenzoyl)-1H-pyrazole-5-carbohydrazide], for which the melting point was 280 to 281 °C. In series [1], the MIC amounted to 12.2 µg/mL (≈ 29.2 µM). The MIC in series [2] was above 50 µg/mL. Moreover, in series [3], the MIC was 17 µg/mL (≈ 40.4 µM). Further, the MIC in series [4] was above 50 µg/mL.
The compound `Cc1cccc(C(=O)NNC(=O)c2cc(-c3ccc(Br)cc3)n[nH]2)c1` [3j, 3-(4-Bromophenyl)-N'-(3-methylbenzoyl)-1H-pyrazole-5-carbohydrazide] registered a melting point of 287 to 288 °C. The MIC in series [2] was 12.5 µg/mL (≈ 31.3 µM). For the same compound, the MIC in series [3] turned out to be 1.12 µg/mL (≈ 2.81 µM). Besides, the MIC in series [4] is 50 µg/mL (≈ 125 µM). At B. subtilis DNA gyrase, this compound had a 50% inhibitory concentration (IC50) of 8140 nM. This compound also gave an IC50 against S. aureus DNA gyrase of 326 nM.
